The source of these data is PubChem BioAssay AID256 (DTP/NCI, 2004).

Structures are written as SMILES. Several values for one entry are separate records, joined by “and”; a condition that tells them apart may be missing. Equal values may be shown once. Inconclusive results and toxic doses are left out.

The subject of the assay is CD2F1 mice, L1210 leukemia ip, survival T/C. Nature of the assay: NCI In Vivo Anticancer Drug Screen. Data for tumor model L1210 Leukemia (intraperitoneal) in CD2F1 (CDF1) mice. The settings on record: higher = longer survival. In a few lines:
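In this screen, transplantable tumors were grown in mice given either the compound or its vehicle. Results were expressed as the treated measurement relative to the control measurement.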

The mark [1] stands for this setting: endpoint: mean survival time, dose: 100.0 mg/kg/injection, schedule: Q01DX009 (ip), vehicle: saline with Tween-80.
The mark [2] stands for this setting: endpoint: mean survival time, dose: 200.0 mg/kg/injection, schedule: Q01DX009 (ip), vehicle: saline with Tween-80.
Setting [3] is: endpoint: mean survival time, dose: 400.0 mg/kg/injection, schedule: Q01DX009 (ip), vehicle: saline with Tween-80.
The mark [4] stands for this setting: endpoint: mean survival time, dose: 100.0 mg/kg/injection, schedule: Q01DX001 (ip), vehicle: saline with Tween-80.
The mark [5] stands for this setting: endpoint: mean survival time, dose: 100.0 mg/kg/injection, schedule: Q04DX002 (ip), vehicle: saline with Tween-80.
The mark [6] stands for this setting: endpoint: mean survival time, dose: 200.0 mg/kg/injection, schedule: Q01DX001 (ip), vehicle: saline with Tween-80.
Where [7] appears, read: endpoint: mean survival time, dose: 200.0 mg/kg/injection, schedule: Q04DX002 (ip), vehicle: saline with Tween-80.
Where [8] appears, read: endpoint: mean survival time, dose: 400.0 mg/kg/injection, schedule: Q01DX001 (ip), vehicle: saline with Tween-80.
[9] abbreviates: endpoint: mean survival time, dose: 400.0 mg/kg/injection, schedule: Q04DX002 (ip), vehicle: saline with Tween-80.
Setting [10] is: endpoint: mean survival time, dose: 12.5 mg/kg/injection, schedule: Q01DX009 (ip), vehicle: other.
Where [11] appears, read: endpoint: mean survival time, dose: 25.0 mg/kg/injection, schedule: Q01DX009 (ip), vehicle: other.
Where [12] appears, read: endpoint: mean survival time, dose: 50.0 mg/kg/injection, schedule: Q01DX009 (ip), vehicle: other.
The mark [13] stands for this setting: endpoint: mean survival time, dose: 100.0 mg/kg/injection, schedule: Q01DX009 (ip), vehicle: other.

As to `CCNCC(=O)O[C@]1(CC)C(=O)OCc2c1cc1n(c2=O)Cc2cc3ccccc3nc2-1`, the T/C was 122 % of control and 110 % of control (endpoint: median survival time, dose: 7.5 mg/kg/injection, schedule: Q04DX002 (ip), vehicle: saline); 164 % of control (endpoint: median survival time, dose: 7.5 mg/kg/injection, schedule: Q04HX004 (iv), vehicle: dextrose); 179 % of control (endpoint: median survival time, dose: 7.5 mg/kg/injection, schedule: Q04HX004 (iv), vehicle: other); 117 % of control (endpoint: median survival time, dose: 15.0 mg/kg/injection, schedule: Q04DX002 (ip), vehicle: saline); 198 % of control (endpoint: median survival time, dose: 15.0 mg/kg/injection, schedule: Q04HX004 (iv), vehicle: dextrose); 195 % of control (endpoint: median survival time, dose: 15.0 mg/kg/injection, schedule: Q04HX004 (iv), vehicle: other). Also, the T/C is, setting by setting: (endpoint: median survival time, dose: 30.0 mg/kg/injection, schedule: Q04DX002 (ip), vehicle: saline) 170 % of control and 172 % of control; (endpoint: median survival time, dose: 30.0 mg/kg/injection, schedule: Q04HX004 (iv), vehicle: dextrose) 208 % of control; (endpoint: median survival time, dose: 30.0 mg/kg/injection, schedule: Q04HX004 (iv), vehicle: other) 223 % of control; (endpoint: median survival time, dose: 40.0 mg/kg/injection, schedule: Q04HX004 (iv), vehicle: other) 235 % of control.

On to `Cc1ccccc1OCC(=O)O`, for which the T/C runs as follows: (endpoint: mean survival time, dose: 50.0 mg/kg/injection, schedule: Q01DX009 (ip), vehicle: saline) 104 % of control; (endpoint: mean survival time, dose: 100.0 mg/kg/injection, schedule: Q01DX009 (ip), vehicle: saline) 101 % of control; (endpoint: mean survival time, dose: 200.0 mg/kg/injection, schedule: Q01DX009 (ip), vehicle: saline) 93 % of control.

Consider `C=CCCCCCCCCC(=O)NCCCC(OCC)OCC`, for which the T/C is 100 % of control under setting [1], 100 % of control under setting [2] and 98 % of control under setting [3].

`COc1ccc(NC(C)=O)c(O)c1OC`: the T/C is 95 % of control under setting [4]; 103 % of control under setting [5]; 92 % of control under setting [6]; 106 % of control under setting [7]; 95 % of control under setting [8]; 98 % of control under setting [9].

For the compound `CSc1nccc2ccccc12`, the T/C by setting is: under setting [10], 106 % of control; under setting [11], 106 % of control; under setting [12], 106 % of control; under setting [13], 106 % of control.

For `CN(C)c1ccc(NS(=O)(=O)c2ccccc2)cc1`, the T/C is, setting by setting: under setting [4], 103 % of control; under setting [6], 98 % of control; under setting [8], 97 % of control.

As to `CCCCOC(=O)CCCC(=O)OCCCC`, the T/C under setting [1] is 108 % of control; the T/C (endpoint: mean survival time, dose: 100.0 mg/kg/injection, schedule: Q04DX003 (ip), vehicle: saline with Tween-80) is 95 % of control; the T/C under setting [2] is 104 % of control; the T/C (endpoint: mean survival time, dose: 200.0 mg/kg/injection, schedule: Q04DX003 (ip), vehicle: saline with Tween-80) is 93 % of control; the T/C under setting [3] was 103 % of control; the T/C (endpoint: mean survival time, dose: 400.0 mg/kg/injection, schedule: Q04DX003 (ip), vehicle: saline with Tween-80) is 95 % of control.

Regarding `CCCCCCCCCCCCCCCCCC(=O)OC1C(CO)OC2C1Oc1nc(=N)ccn12` (stereo not given), the T/C under setting [10] was 167 % of control; the T/C under setting [11] is 229 % of control; the T/C under setting [12] is 301 % of control; the T/C under setting [13] is 280 % of control; the T/C (endpoint: mean survival time, dose: 200.0 mg/kg/injection, schedule: Q01DX009 (ip), vehicle: other) was 96 % of control.

As for `NC1CC[N-]CC1.NC1CC[N-]CC1.NC1CC[N-]CC1.NC1CC[N-]CC1.[Cl][Rh][Cl]`, the T/C (endpoint: mean survival time, dose: 6.25 mg/kg/injection, schedule: Q04DX003 (ip), vehicle: saline with Tween-80) is 98 % of control; the T/C (endpoint: mean survival time, dose: 12.5 mg/kg/injection, schedule: Q04DX003 (ip), vehicle: saline with Tween-80) is 101 % of control; the T/C (endpoint: mean survival time, dose: 25.0 mg/kg/injection, schedule: Q04DX003 (ip), vehicle: saline with Tween-80) is 95 % of control.

In the case of `Nc1ncnc2c1ncn2CCC(CO)CO`, the T/C is 102 % of control (endpoint: mean survival time, dose: 200.0 mg/kg/injection, schedule: Q01DX001 (ip), vehicle: saline) and 107 % of control (endpoint: mean survival time, dose: 400.0 mg/kg/injection, schedule: Q01DX001 (ip), vehicle: saline).

Consider `CC(=O)CC(=O)C(C)(C)C(C)=O`, for which the T/C by setting is: under setting [4], 98 % of control; (endpoint: mean survival time, dose: 100.0 mg/kg/injection, schedule: Q01DX009 (ip), vehicle: saline sonified) 97 % of control; under setting [5], 117 % of control; under setting [6], 104 % of control; (endpoint: mean survival time, dose: 200.0 mg/kg/injection, schedule: Q01DX009 (ip), vehicle: saline sonified) 105 % of control; under setting [7], 102 % of control. The T/C under setting [8] is 101 % of control; the T/C (endpoint: mean survival time, dose: 400.0 mg/kg/injection, schedule: Q01DX009 (ip), vehicle: saline sonified) is 100 % of control; the T/C under setting [9] is 98 % of control.

Regarding `C[C@]12CC[C@H](OC(=O)Cc3ccc(N(CCCl)CCCl)cc3)CC1=CC[C@@H]1[C@@H]2CC[C@]2(C)C(=O)CC[C@@H]12`, the T/C is 92 % of control under setting [4]; 100 % of control under setting [1]; 90 % of control under setting [6]; 107 % of control under setting [2]; 96 % of control under setting [8]; 111 % of control under setting [3].

On to `CC(=O)Nc1cccc(N=NN(C)C)c1`, for which the T/C is 113 % of control (endpoint: mean survival time, dose: 12.5 mg/kg/injection, schedule: Q01DX009 (ip), vehicle: Klucel (hydroxypropylcellulose) (HPC)); 151 % of control (endpoint: mean survival time, dose: 50.0 mg/kg/injection, schedule: Q01DX009 (ip), vehicle: Klucel (hydroxypropylcellulose) (HPC)); 87 % of control (endpoint: mean survival time, dose: 200.0 mg/kg/injection, schedule: Q01DX009 (ip), vehicle: Klucel (hydroxypropylcellulose) (HPC)).

As for `C1OC1C1CO1` (stereo not given), the T/C reads like this: (endpoint: mean survival time, dose: 1.25 mg/kg/injection, schedule: Q01DX009 (ip), vehicle: saline) 97 % of control and 98 % of control; (endpoint: mean survival time, dose: 2.5 mg/kg/injection, schedule: Q01DX009 (ip), vehicle: saline) 95 % of control and 100 % of control; (endpoint: mean survival time, dose: 5.0 mg/kg/injection, schedule: Q01DX009 (ip), vehicle: saline) 96 % of control and 103 % of control; (endpoint: mean survival time, dose: 10.0 mg/kg/injection, schedule: Q01DX009 (ip), vehicle: saline) 98 % of control and 105 % of control; (endpoint: mean survival time, dose: 20.0 mg/kg/injection, schedule: Q01DX009 (ip), vehicle: saline) 103 % of control and 112 % of control; (endpoint: mean survival time, dose: 40.0 mg/kg/injection, schedule: Q01DX009 (ip), vehicle: saline) 108 % of control.

Consider `CC1=COC2CCCCC2O1` (stereo not given) (tested in a mixture with another compound), for which the T/C is 95 % of control under setting [1], 97 % of control under setting [2] and 91 % of control under setting [3].

Turning to `CC(=O)N(C1=CC(=O)c2ccccc2C1=O)c1ccc(C)cc1`, the T/C runs as follows: (endpoint: mean survival time, dose: 75.0 mg/kg/injection, schedule: Q01DX001 (ip), vehicle: saline) 100 % of control; (endpoint: mean survival time, dose: 150.0 mg/kg/injection, schedule: Q01DX001 (ip), vehicle: saline) 100 % of control.

In the case of `CC(=O)N1NC2C(=O)N(C3CCCCC3)CC2C1c1ccc(N(C)C)cc1` (stereo not given), the T/C is 100 % of control under setting [4]; 103 % of control under setting [5]; 100 % of control under setting [6]; 100 % of control under setting [7]; 100 % of control under setting [8]; 92 % of control under setting [9].
